For two compounds, melting point and Ki results are on record in patent US6566373B2, “Protease inhibitors” (SmithKline Beecham Corporation, priority 1997, dated 2003).

SMILES strings stand for the structures. Where a name gives a salt, the structure may show the parent alone.

Data set [1] has as its target T1, cathepsin K (Homo sapiens, UniProt P43235).
T1 sequence (P43235 115-329): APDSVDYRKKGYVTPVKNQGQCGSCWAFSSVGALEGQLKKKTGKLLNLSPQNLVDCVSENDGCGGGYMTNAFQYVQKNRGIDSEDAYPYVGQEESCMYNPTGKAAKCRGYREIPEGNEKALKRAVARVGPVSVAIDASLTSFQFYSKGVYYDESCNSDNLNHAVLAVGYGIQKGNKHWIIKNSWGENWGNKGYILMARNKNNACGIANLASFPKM
Description: Cathepsin K inhibition (progress curve method, fluorogenic substrate Cbz-Phe-Arg-AMC). The data set is classed as biochemical. Particulars: human recombinant enzyme, 100 mM Na acetate pH 5.5. The method, then:
Determination of Cathepsin K Proteolytic Catalytic Activity
All assays for cathepsin K were carried out with human recombinant enzyme. Standard assay conditions for the determination of kinetic constants used a fluorogenic peptide substrate, typically Cbz-Phe-Arg-AMC, and were determined in 100 mM Na acetate at pH 5.5 containing 20 mM cysteine and 5 mM EDTA. Stock substrate solutions were prepared at concentrations of 10 or 20 mM in DMSO with 20 μM final substrate concentration in the assays. All assays contained 10% DMSO. […] All assays were conducted at ambient temperature. Product fluorescence (excitation at 360 nm; emission at 460 nm) was monitored with a Perceptive Biosystems Cytofluor II fluorescent plate reader. […]
Potential inhibitors were evaluated using the progress curve method. […] For those compounds whose progress curves were linear, apparent inhibition constants (Ki,app) were calculated according to equation 1 (Brandt et al., Biochemitsry, 1989, 28, 140): […]
[AMC]=vSSt+(v0−vSS)[1−exp (−kobst)]/kobs (2) where [AMC] is the concentration of product formed over time t, v0 is the initial reaction velocity, and vSS is the final steady state rate. Values for kobs were then analyzed as a linear function of inhibitor concentration to generate an apparent second order rate constant (kobs/inhibitor concentration or kobs/[I]) describing the time-dependent inhibition. […]

What is called melting point is the temperature of the solid-liquid transition. One may read the Ki as the equilibrium dissociation constant of an inhibitor or competing ligand from its target.

Compound `CC(C)C[C@H](NS(=O)(=O)c1cccc2cccnc12)C(=O)NC1COCC1=O` (mixture of isomers) (as salt: HCl) [Example 7, 4-(R,S)-Amino-N-[(8-quinolinesulfonyl)-S-leucine]-tetrahydrofuran-3-one] registered a melting point of 98 °C.
Take `CC(C)C[C@H](NS(=O)(=O)c1cccc2cccnc12)C(=O)NC1COCC1=O` (mixture of isomers) [Example 7, 4-(R,S)-Amino-N-[(8-quinolinesulfonyl)-S-leucine]-tetrahydrofuran-3-one]: the Ki in data set [1] is above 10 µM.
